Measured values taken from BindingDB's records for PubMed 20126400 (University of Oklahoma, 2010).

What was measured:
Test in all cases: Ray2010 Assay 74
[1] = biological target: Beta-2 adrenergic receptor (Homo sapiens, UniProt P07550)
Text: (§1) Table S2 shows raw Ki data for the current study combined with data collected from the literature for the ten additional compounds.

[2] = biological target: Nischarin (Homo sapiens, UniProt Q9Y2I1)
Text: as §1

[3] = biological target: 5-hydroxytryptamine receptor 7 (Homo sapiens, UniProt P34969)
Text: as §1

[4] = biological target: T1, 5-hydroxytryptamine receptor 3A (Homo sapiens, UniProt P46098)
T1 sequence (P46098 whole entry): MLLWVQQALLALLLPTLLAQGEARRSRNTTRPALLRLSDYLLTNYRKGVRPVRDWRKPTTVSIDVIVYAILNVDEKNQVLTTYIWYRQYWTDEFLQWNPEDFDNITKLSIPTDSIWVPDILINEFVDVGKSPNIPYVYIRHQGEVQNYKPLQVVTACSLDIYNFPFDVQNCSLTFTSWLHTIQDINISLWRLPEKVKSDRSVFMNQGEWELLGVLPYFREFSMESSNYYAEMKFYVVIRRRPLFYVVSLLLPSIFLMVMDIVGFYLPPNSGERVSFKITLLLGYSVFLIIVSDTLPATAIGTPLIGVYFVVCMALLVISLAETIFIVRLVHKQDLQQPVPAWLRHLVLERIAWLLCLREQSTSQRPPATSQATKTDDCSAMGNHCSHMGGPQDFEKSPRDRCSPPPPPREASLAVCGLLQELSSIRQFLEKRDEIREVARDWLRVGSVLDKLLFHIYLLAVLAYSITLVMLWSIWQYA
Text: as §1

[5] = biological target: T2, Alpha-2C adrenergic receptor (Homo sapiens, UniProt P18825)
T2 sequence (P18825 whole entry): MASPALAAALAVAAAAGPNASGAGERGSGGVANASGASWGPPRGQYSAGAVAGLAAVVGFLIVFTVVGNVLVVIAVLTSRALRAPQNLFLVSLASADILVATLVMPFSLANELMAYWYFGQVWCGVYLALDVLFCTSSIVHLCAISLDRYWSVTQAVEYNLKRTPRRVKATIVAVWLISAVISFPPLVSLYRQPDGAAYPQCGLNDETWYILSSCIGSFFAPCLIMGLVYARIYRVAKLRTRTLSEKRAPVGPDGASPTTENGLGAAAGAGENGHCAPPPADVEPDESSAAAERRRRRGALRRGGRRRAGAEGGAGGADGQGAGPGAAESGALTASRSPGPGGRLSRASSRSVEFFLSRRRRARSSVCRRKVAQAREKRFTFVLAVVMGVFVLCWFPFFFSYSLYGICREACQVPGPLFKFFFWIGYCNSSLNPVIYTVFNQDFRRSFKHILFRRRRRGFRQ
Text: as §1

[6] = biological target: Cannabinoid receptor 2 (Homo sapiens, UniProt P34972)
Text: as §1

[7] = biological target: Sigma non-opioid intracellular receptor 1 (Homo sapiens, UniProt Q99720)
Text: as §1

[8] = biological target: Muscarinic acetylcholine receptor M3 (Homo sapiens, UniProt P20309)
Text: as §1

[9] = biological target: Vasopressin V1a receptor (Homo sapiens, UniProt P37288)
Text: as §1

[10] = biological target: T3, Vasopressin V1b receptor (Homo sapiens, UniProt P47901)
T3 sequence (P47901 whole entry): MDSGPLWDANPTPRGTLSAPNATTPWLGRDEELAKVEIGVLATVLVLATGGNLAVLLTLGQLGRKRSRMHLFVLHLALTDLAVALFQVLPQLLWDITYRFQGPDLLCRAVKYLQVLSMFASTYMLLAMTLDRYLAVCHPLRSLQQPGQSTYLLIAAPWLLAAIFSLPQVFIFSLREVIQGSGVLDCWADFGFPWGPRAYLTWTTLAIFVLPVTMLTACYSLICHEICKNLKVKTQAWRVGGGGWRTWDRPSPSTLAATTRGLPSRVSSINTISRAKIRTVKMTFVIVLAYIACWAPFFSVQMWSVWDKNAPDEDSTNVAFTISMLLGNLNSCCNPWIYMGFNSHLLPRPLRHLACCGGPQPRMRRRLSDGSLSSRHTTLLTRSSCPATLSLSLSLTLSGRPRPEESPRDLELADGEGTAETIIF
Text: as §1

Chain of Sigma non-opioid intracellular receptor 1 (Q99720 whole entry): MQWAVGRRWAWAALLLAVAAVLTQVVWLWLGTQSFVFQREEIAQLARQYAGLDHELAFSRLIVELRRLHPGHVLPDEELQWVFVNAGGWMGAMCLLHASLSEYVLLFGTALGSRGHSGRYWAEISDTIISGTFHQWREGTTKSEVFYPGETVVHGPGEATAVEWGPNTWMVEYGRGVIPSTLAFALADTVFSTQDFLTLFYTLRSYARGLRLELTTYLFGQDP
Chain of Muscarinic acetylcholine receptor M3 (P20309 whole entry): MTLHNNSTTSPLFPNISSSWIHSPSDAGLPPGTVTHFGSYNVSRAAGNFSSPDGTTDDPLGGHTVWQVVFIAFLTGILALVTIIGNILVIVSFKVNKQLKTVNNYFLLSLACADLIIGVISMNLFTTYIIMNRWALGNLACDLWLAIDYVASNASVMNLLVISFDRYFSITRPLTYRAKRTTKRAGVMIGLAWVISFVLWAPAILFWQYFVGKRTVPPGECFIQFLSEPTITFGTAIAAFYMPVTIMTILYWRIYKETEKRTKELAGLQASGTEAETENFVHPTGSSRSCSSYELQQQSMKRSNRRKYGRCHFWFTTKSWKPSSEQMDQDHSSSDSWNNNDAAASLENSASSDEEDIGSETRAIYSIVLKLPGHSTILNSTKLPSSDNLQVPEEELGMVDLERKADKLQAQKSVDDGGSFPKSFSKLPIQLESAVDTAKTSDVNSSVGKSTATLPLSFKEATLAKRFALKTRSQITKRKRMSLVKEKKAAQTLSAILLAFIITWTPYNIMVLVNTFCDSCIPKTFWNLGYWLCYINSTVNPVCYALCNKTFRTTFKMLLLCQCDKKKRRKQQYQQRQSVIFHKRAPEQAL
Chain of Nischarin (Q9Y2I1 whole entry): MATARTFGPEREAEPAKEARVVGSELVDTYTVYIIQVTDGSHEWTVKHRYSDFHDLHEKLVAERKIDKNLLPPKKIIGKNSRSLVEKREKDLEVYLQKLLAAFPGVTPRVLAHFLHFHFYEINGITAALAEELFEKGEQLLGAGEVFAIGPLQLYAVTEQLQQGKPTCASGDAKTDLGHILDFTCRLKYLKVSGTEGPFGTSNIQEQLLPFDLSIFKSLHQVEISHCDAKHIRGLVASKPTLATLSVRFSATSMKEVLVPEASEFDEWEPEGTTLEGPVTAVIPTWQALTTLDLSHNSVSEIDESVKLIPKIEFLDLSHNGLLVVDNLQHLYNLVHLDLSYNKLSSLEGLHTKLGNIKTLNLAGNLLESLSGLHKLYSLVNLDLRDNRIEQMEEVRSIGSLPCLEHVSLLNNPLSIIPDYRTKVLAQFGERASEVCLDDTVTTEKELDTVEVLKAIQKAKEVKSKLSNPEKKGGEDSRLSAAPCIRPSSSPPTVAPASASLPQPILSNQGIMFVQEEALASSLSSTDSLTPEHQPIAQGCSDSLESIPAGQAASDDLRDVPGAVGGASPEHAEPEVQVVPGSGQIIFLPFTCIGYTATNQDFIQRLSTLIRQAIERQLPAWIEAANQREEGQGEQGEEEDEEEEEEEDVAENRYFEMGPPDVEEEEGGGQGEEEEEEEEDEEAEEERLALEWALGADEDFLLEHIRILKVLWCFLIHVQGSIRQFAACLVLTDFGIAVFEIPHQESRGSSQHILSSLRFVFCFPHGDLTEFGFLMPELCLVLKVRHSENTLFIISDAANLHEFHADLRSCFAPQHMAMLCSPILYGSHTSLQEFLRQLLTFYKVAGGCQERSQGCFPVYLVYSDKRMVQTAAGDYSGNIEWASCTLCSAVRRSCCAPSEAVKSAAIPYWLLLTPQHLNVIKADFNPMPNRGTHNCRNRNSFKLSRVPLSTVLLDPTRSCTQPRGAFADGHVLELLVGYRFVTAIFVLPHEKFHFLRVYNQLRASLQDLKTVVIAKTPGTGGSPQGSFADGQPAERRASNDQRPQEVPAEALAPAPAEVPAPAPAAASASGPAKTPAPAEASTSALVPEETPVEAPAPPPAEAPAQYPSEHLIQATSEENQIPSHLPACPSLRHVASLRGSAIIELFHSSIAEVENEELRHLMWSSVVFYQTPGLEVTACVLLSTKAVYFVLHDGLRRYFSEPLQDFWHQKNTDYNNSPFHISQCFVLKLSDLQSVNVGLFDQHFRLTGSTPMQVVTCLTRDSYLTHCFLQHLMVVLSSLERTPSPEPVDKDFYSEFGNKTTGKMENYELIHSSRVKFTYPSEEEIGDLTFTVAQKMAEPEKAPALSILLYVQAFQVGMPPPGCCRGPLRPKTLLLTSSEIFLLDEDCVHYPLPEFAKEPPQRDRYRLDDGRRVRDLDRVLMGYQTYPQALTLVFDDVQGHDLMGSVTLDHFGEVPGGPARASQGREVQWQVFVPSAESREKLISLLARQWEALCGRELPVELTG
Chain of Vasopressin V1a receptor (P37288 whole entry): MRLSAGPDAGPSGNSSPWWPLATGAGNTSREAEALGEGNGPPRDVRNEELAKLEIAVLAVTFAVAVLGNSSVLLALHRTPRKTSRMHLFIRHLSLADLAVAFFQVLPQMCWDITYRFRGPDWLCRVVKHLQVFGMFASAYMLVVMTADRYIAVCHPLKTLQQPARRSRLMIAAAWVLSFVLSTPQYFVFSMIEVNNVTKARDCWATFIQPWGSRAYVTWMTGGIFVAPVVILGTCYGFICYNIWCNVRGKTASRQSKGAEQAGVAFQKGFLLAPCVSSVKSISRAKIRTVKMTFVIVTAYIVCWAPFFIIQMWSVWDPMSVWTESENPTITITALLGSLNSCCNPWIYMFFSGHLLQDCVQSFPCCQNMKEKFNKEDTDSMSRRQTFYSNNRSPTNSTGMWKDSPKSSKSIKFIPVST
Chain of 5-hydroxytryptamine receptor 7 (P34969 whole entry): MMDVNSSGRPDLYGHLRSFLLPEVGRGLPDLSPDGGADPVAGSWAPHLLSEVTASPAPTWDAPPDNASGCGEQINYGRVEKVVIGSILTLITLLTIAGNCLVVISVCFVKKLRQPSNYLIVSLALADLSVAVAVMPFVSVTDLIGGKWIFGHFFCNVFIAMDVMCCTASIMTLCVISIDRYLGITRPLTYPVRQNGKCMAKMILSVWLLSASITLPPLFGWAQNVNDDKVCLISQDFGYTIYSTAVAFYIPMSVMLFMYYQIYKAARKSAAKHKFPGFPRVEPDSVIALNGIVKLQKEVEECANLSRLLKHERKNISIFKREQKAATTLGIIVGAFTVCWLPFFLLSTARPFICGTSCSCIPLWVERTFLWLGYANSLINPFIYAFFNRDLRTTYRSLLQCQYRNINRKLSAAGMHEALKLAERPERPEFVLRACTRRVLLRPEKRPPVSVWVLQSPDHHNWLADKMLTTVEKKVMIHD
Chain of Cannabinoid receptor 2 (P34972 whole entry): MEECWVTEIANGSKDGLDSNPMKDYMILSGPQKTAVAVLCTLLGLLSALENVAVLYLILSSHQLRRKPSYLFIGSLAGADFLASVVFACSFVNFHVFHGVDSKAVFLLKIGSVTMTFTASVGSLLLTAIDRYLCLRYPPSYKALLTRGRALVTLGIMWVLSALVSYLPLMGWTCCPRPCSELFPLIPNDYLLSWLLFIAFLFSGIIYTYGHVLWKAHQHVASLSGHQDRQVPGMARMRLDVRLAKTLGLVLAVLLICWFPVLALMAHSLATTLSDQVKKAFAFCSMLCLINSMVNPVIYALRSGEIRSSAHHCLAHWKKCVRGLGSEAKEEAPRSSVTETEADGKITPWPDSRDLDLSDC

CC(N)Cc1ccc2c(c1)OCO2 (centres undefined)
Ki [1]: > 10 µM
Ki [2]: > 10 µM
Ki [3]: 3.55 µM
Ki [4]: > 10 µM
Ki [5]: 0.229 µM
Ki [6]: > 10 µM

COc1cc(CC(C)N)cc(OC)c1OC (centres undefined)
Ki [1]: > 10 µM
Ki [2]: > 10 µM
Ki [3]: 0.749 µM
Ki [4]: > 10 µM
Ki [5]: 5.01 µM
Ki [6]: > 10 µM
Ki [7]: 0.536 µM

CC[C@H]1C[C@@H]2C[C@H]3c4[nH]c5ccc(OC)cc5c4CCN(C2)[C@@H]13
Ki [8]: 12.5 µM
Ki [4]: > 10 µM
Ki [7]: 5.84 µM

CCc1cc(OC)c(CC(C)N)cc1OC (centres undefined)
Ki [2]: > 10 µM
Ki [3]: 1.23 µM
Ki [4]: > 10 µM
Ki [5]: 1.45 µM
Ki [6]: > 10 µM
Ki [7]: 9.78 µM

CN(C)CCc1c[nH]c2ccccc12 [2-(1H-indol-3-yl)-N,N-dimethylethanamine]
Ki [1]: > 10 µM
Ki [2]: 0.65 µM
Ki [8]: > 10 µM
Ki [3]: 0.0875 µM
Ki [4]: > 10 µM
Ki [6]: > 10 µM
Ki [7]: 5.21 µM

NCCc1c2c(c(Br)c3c1OCC3)OCC2 [2-(8-Bromo-2,3,6,7-tetrahydro-benzo[1,2-b;4,5-b']difuran-4-yl)-ethylamine]
Ki [1]: > 10 µM
Ki [2]: > 10 µM
Ki [8]: 0.339 µM
Ki [4]: > 10 µM
Ki [5]: 0.233 µM
Ki [6]: 8.97 µM
Ki [7]: > 10 µM

CCc1[nH]c2ccc(OC)cc2c1CCN(C)C [2-ethyl-5-methoxy-N,N-dimethyltryptamine]
Ki [9]: > 10 µM
Ki [8]: > 10 µM
Ki [10]: > 10 µM

COC(=O)[C@@H]1C[C@H](OC(C)=O)C(=O)[C@H]2[C@@]1(C)CC[C@H]1C(=O)O[C@H](c3ccoc3)C[C@]21C [2S,4aR,6a(R,7R,9S,10aS,10bR)-9-(acetyloxy)-2-(furan-3-yl)dodecahydro-6a,10b-dimethyl-4,10-dioxo-2H-naphtho[2,1-c]pyran-7-carboxylic acid methyl ester]
Ki [1]: > 10 µM
Ki [8]: > 10 µM
Ki [3]: > 10 µM

COc1ccc2[nH]cc(CCN(C)C)c2c1 [3-(2-DIMETHYLAMINOETHYL)-5-METHOXYINDOLE]
Ki [1]: > 10 µM
Ki [2]: 2.5 µM
Ki [8]: > 10 µM
Ki [5]: 0.508 µM
Ki [6]: > 10 µM
Ki [7]: > 10 µM

CN(C)CCc1c[nH]c2cccc(O)c12 [4-hydroxy-N,N-dimethyltryptamine]
Ki [1]: > 10 µM
Ki [2]: 0.792 µM
Ki [8]: > 10 µM
Ki [4]: > 10 µM
Ki [6]: > 10 µM
Ki [7]: > 10 µM

COc1cc(OC)c(OC)cc1CC(C)N (stereo not drawn) [(+/-)1-Methyl-2-(2,4,5-trimethoxy-phenyl)-ethylamine]
Ki [1]: > 10 µM
Ki [3]: > 10 µM
Ki [4]: > 10 µM
Ki [5]: > 10 µM

COc1cc(CC(C)N)c(OC)cc1C (stereo not drawn) [(+/-)2-(2,5-Dimethoxy-4-methyl-phenyl)-1-methyl-ethylamine]
Ki [2]: > 10 µM
Ki [3]: 1.59 µM
Ki [4]: > 10 µM
Ki [5]: 0.921 µM
Ki [6]: > 10 µM
Ki [7]: > 10 µM

COc1ccc2[nH]c(C)c(CCN(C)C)c2c1 [[2-(5-Methoxy-2-methyl-1H-indol-3-yl)-ethyl]-dimethyl-amine (C2H2O)]
Ki [9]: > 10 µM
Ki [8]: > 10 µM
Ki [10]: > 10 µM

CCN(CC)C(=O)[C@@H]1C=C2c3cccc4[nH]cc(c34)C[C@H]2N(C)C1 [[N-methyl-3H]LSD]
Ki [9]: > 10 µM
Ki [4]: > 10 µM
Ki [10]: > 10 µM

C[C@@H]1C[C@H](C)N1C(=O)C1C=C2c3cccc4[nH]cc(c34)C[C@H]2N(C)C1 (stereo partly drawn) [cis-2a]
Ki [9]: > 10 µM
Ki [4]: > 10 µM
Ki [10]: > 10 µM

C[C@@H]1C[C@@H](C)N1C(=O)C1C=C2c3cccc4[nH]cc(c34)C[C@H]2N(C)C1 (some centres undefined) [rr-2b]
Ki [9]: > 10 µM
Ki [4]: > 10 µM
Ki [10]: > 10 µM

CAS_82830-44-2::(2R)-1-(4-iodo-2,5-dimethoxyphenyl)propan-2-amine::DOI,(-)::US20250270173, Compound DOI
Ki [1]: 0.139 µM
Ki [2]: > 10 µM
Ki [8]: 1.43 µM
Ki [3]: 5.77 µM
Ki [4]: > 10 µM
Ki [5]: 0.601 µM
Ki [6]: > 10 µM
Ki [7]: 8.56 µM
